Source: article PMC4870556, “Triazole resistance mediated by mutations of a conserved active site tyrosine in fungal lanosterol 14α-demethylase” (Scientific Reports, 2016)
Where two headings read alike, the source gives them in different places.

Experiments:
[1] = target: T1, wild type ScErg11p6 × His (Saccharomyces cerevisiae, UniProt P10614); test: Type II difference spectra triazole binding to affinity purified wild type enzyme; conditions: for Hill number / IC50 / Kd: wild-type enzyme 1 μM; for IC50 / Kd: Hill equation fit; for IC50: IC50 value is denoted as [Azole]0.5; for Kd: standard error in brackets; for ΔAmax of type II difference spectra: wild-type enzyme, Ni-NTA affinity purified
T1 construct: full-length Saccharomyces cerevisiae hexahistidine-tagged Erg11p (ScErg11p6 × His); made in house; host or cells: Saccharomyces cerevisiae strain AD3ΔScErg11p (overexpression from the PDR5 locus, native ERG11 deleted)
T1 sequence (P10614 whole entry): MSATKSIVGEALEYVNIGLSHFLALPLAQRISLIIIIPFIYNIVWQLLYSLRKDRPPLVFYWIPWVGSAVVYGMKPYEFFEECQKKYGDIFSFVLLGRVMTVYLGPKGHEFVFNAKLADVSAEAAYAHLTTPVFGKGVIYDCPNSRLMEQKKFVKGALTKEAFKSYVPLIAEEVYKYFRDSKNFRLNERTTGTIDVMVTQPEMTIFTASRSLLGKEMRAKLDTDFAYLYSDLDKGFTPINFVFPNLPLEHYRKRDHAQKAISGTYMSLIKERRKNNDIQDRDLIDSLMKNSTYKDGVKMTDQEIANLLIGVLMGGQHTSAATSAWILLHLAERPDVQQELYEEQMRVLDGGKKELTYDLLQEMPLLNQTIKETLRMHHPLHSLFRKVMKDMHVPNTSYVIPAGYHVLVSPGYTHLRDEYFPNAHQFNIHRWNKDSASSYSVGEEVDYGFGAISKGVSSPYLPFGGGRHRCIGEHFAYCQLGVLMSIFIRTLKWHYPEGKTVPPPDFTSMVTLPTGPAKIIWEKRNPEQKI
Procedure: (§1) Ni-NTA affinity purified mutant and wild type ScErg11p6 × His preparations (1 μM) were used to detect and quantitate type II azole binding. The spectral shift of the Soret peak from 417 nm to 421–424 nm in cytochrome P450s is also detected by the type II difference spectra. This change is associated with the replacement of a water molecule coordinated to the heme iron with the azole heterocycle. Type II difference spectra were obtained for FLC, VCZ, ITC and PCZ binding to both mutant enzymes. The binding of FLC is shown as an example (Fig. 2b). The type II difference spectra for the mutant enzymes were less intense than for the wild type enzyme. They gave 2–3-fold smaller differences in absorbance (ΔAmax), with peaks shifted from 428 nm for wild type enzyme to 424–425 nm for the mutant enzymes plus less well-defined troughs between 406–410 nm (Supplementary Table S3). […] These values indicate tight binding for each drug tested.
(§2) The concentration of functional cytochrome P450 for drug binding studies was determined using the carbon monoxide binding spectra according to the protocol described by Guengerich et al.[33]. Affinity purified ScErg11p6 × His used for spectroscopic assays was eluted using affinity purification buffer containing 50 mM L-histidine instead of imidazole. L-histidine was removed from the sample by washing the enzyme with solubilisation buffer containing 16 mM DM using 50 kDa molecular-weight cut-off Amicon Ultra-4 centrifugal filters (Merck Millipore Ltd, Cork, Ireland). The removal of L-histidine was checked by taking the absolute spectra of the sample using the Ultrospec™ 6300 pro UV/Visible spectrophotometer. The heme peak for wild type protein with no ligand was at ~417 nm. With L-histidine bound the peak was detected at ~420 nm. Enzyme concentration was determined by saturating the sample cuvette with CO gas prior to the addition of sodium dithionite. The reference cuvette containing the same amount of enzyme was treated with sodium dithionite only. The P450 concentration was determined by measuring the difference in absorbance between 446 and 490 nm and using the extinction coefficient of 91 mM^−1 cm^−1 [58]. Absorption spectra were recorded with a Cary 1 Bio UV-visible spectrophotometer using 10 mm path UV transparent plastic cuvettes (GE Healthcare Life Sciences, UK). Difference spectra were measured using 1 μM ScErg11p6 × His wild type or Y140F/H enzyme titrated with the triazole drugs ITC, PCZ, VCZ and FLC. Triazole drugs dissolved in DMSO were added to the sample cuvette, with the same amount of DMSO added to the reference cuvette. The total amount of DMSO was <2% of the total volume in the cuvette. Difference spectra between 350–500 nm were recorded and the trough-peak absorbance changes were used to plot binding curves. The dissociation constant Kd for type II binding of triazole drugs was calculated using GraphPad Prism 6 Software (GraphPad Prism, San Diego, CA) by applying the Hill equation using the formula ΔA = ΔAmax [Azole]^n/([Azole]^n + Kd^n), with ΔAmax being the maximum change in absorbance and [Azole] the azole concentration.

ScErg11p6 × His Y140F = target: T2, ScErg11p6 × His Y140F (Saccharomyces cerevisiae, UniProt P10614, Y140F); test: Type II difference spectra triazole binding to affinity purified Y140F mutant enzyme; conditions: for Hill number / IC50 / Kd: Y140F enzyme 1 μM; for IC50 / Kd: Hill equation fit; for IC50: IC50 value is denoted as [Azole]0.5; for Kd: standard error in brackets; for ΔAmax of type II difference spectra: Y140F enzyme, Ni-NTA affinity purified
T2 construct: full-length Saccharomyces cerevisiae hexahistidine-tagged Erg11p (ScErg11p6 × His); made in house; host or cells: Saccharomyces cerevisiae strain AD3ΔScErg11_Y140F (native ERG11 deleted)
T2 sequence (P10614 whole entry Y140F): as the sequence (P10614 whole entry) above, with Y140F counted along it
Procedure: as §1, §2

ScErg11p6 × His Y140H = target: T3, ScErg11p6 × His Y140H (Saccharomyces cerevisiae, UniProt P10614, Y140H); test: Type II difference spectra triazole binding to affinity purified Y140H mutant enzyme; conditions: for Hill number / IC50 / Kd: Y140H enzyme 1 μM; for IC50 / Kd: Hill equation fit; for IC50: IC50 value is denoted as [Azole]0.5; for Kd: standard error in brackets; for ΔAmax of type II difference spectra: Y140H enzyme, Ni-NTA affinity purified
T3 construct: full-length Saccharomyces cerevisiae hexahistidine-tagged Erg11p (ScErg11p6 × His); made in house; host or cells: Saccharomyces cerevisiae strain AD3ΔScErg11_Y140H (native ERG11 deleted)
T3 sequence (P10614 whole entry Y140H): as the sequence (P10614 whole entry) above, with Y140H counted along it
Procedure: as §1, §2

[2] = system: AD3ΔScErg11p (strain overexpressing wild type ScErg11p6 × His); test: Broth microdilution MIC80, strain overexpressing wild type enzyme; format: cell-based; conditions: Saccharomyces cerevisiae, 48 h, pH 6.8
Procedure: (§3) Susceptibilities to triazole drugs of S. cerevisiae AD3Δ strains overexpressing Erg11p6 × His Y140F/H, but with the native ERG11 deleted, were measured as liquid MIC80 values (Supplementary Table S2). Overexpression of ScErg11p6 × His Y140F in the AD3ΔScErg11p_Y140F strain conferred 2-fold lower susceptibility to FLC than the strain overexpressing wild type ScErg11p6 × His i.e. MIC80 of 4.0 μg/ml and 2.1 μg/ml, respectively. The same mutant conferred a 1.7-fold reduction in susceptibility to VCZ. The MIC80 values were 0.42 μg/ml for the strain overexpressing ScErg11p6 × His Y140F and 0.25 μg/ml for the strain overexpressing wild type ScErg11p6 × His.
The S. cerevisiae AD2Δ host was used to create the strains used in this study. The strain was made by deletion of the HIS1 gene from the previously described ADΔ[49] strain. ADΔ and AD2Δ lack 7 major ATP-binding cassette transporters and the PDR3 gene. Both strains have the gain-of function pdr1–3 mutation in the PDR1 transcriptional regulator gene to provide constitutive overexpression of ScErg11p6 × His from the PDR5 locus. Yeast strains were grown on YPD medium: 1% (wt/vol) Bacto-yeast extract (BD Difco™ Laboratories Inc, Franklin Lakes, NJ), 2% (wt/vol) Bacto-peptone (BD Difco™) and 2% (wt/vol) glucose. Synthetic defined (SD) medium was used for selection of transformants. […]
(§4) The susceptibilities of strains overexpressing wild type ScErg11p6 × His and ScErg11p6 × His Y140F/H to triazole drugs were measured as MIC80 values using broth microdilution assays. […] MIC80s to FLC, ITC and VCZ were determined in 96-well microtiter plates using SD buffered to pH 6.8 instead of RPMI[50]. […] Cell growth was assessed by measuring the OD600nm of wells using a BioTek Synergy™ 2 multi-mode plate reader (BioTek Instruments, Vermont, USA). Each MIC80 was determined using triplicate measurements for three clones of each strain in three separate experiments.

AD3ΔScErg11p_Y140F = test: Broth microdilution MIC80, strain overexpressing Y140F enzyme; format: cell-based, Saccharomyces cerevisiae; conditions: for fold lower susceptibility (MIC80) than strain overexpressing wild type ScErg11p6 × His: Y140F strain vs wild type strain
Procedure: as §3
The S. cerevisiae AD2Δ host was used to create the strains used in this study. The strain was made by deletion of the HIS1 gene from the previously described ADΔ[49] strain. ADΔ and AD2Δ lack 7 major ATP-binding cassette transporters and the PDR3 gene. Both strains have the gain-of function pdr1–3 mutation in the PDR1 transcriptional regulator gene to provide constitutive overexpression of ScErg11p6 × His from the PDR5 locus. Yeast strains were grown on YPD medium: 1% (wt/vol) Bacto-yeast extract (BD Difco™ Laboratories Inc, Franklin Lakes, NJ), 2% (wt/vol) Bacto-peptone (BD Difco™) and 2% (wt/vol) glucose. Synthetic defined (SD) medium was used for selection of transformants. It contained 2% (wt/vol) glucose, 0.67% (wt/vol) yeast nitrogen base without amino acids (BD Difco™), 2% (wt/vol) agar (Oxoid Ltd., Hampshire, UK) and either uracil drop-out (Qbiogene, Irvine, CA) or histidine drop-out (Formedium™, Norfolk, UK) complete supplement mixture. Liquid SD media with complete supplement mixture (Formedium™) containing 10 mM MES and 20 mM HEPES buffered with TRIS to pH 6.8 was used for MIC80 determinations.
The susceptibilities of strains overexpressing wild type ScErg11p6 × His and ScErg11p6 × His Y140F/H to triazole drugs were measured as MIC80 values using broth microdilution assays. The MIC80s were defined as 80% growth inhibition compared to no drug controls because triazole drugs are fungistatic rather than fungicidal and can give trailing growth. MIC80s to FLC, ITC and VCZ were determined in 96-well microtiter plates using SD buffered to pH 6.8 instead of RPMI[50]. Cells were seeded at OD600nm = 0.005 (1.5 × 10^4 CFU) and the plates were incubated in 30 °C with shaking at 200 rpm for 48 hrs. Cell growth was assessed by measuring the OD600nm of wells using a BioTek Synergy™ 2 multi-mode plate reader (BioTek Instruments, Vermont, USA). Each MIC80 was determined using triplicate measurements for three clones of each strain in three separate experiments.

AD3ΔScErg11p_Y140H = test: Broth microdilution MIC80, strain overexpressing Y140H enzyme; format: cell-based; conditions: Saccharomyces cerevisiae, 48 h, pH 6.8, 80% growth inhibition, SD medium pH 6.8, 30 °C, native ERG11 deleted
Procedure: as §3
The S. cerevisiae AD2Δ host was used to create the strains used in this study. The strain was made by deletion of the HIS1 gene from the previously described ADΔ[49] strain. […]
as §4

AfCYP51A [3] = conditions: cited from earlier work
AfCYP51B [4] = system: AfCYP51B; set-up: method as in PMID 26459890; conditions: membrane preparations, enzyme heterologously expressed in E. coli; cited from earlier work
AfCYP51A [5] = target: AfCYP51A; set-up: method as in PMID 26459890; conditions: type II binding, cited from earlier work
AfCYP51B [6] = target: AfCYP51B; set-up: method as in PMID 26459890; conditions: type II binding, Ni-NTA affinity purified enzyme; cited from earlier work
[7] = system: C. albicans Erg11p (CaErg11p) Y132F/H; conditions: Y132F/H mutations detected in clinical isolates; cited from earlier work
[8] = Saccharomyces cerevisiae, 48 h, pH 6.8

SMILES | Hill number [1] | IC50 [1] [nM] | Kd [1] [nM] | ΔAmax of type II difference spectra [1] | Hill number (ScErg11p6 × His Y140F) | IC50 (ScErg11p6 × His Y140F) [nM] | Kd (ScErg11p6 × His Y140F) [nM] | ΔAmax of type II difference spectra (ScErg11p6 × His Y140F) | Hill number (ScErg11p6 × His Y140H) | IC50 (ScErg11p6 × His Y140H) [nM] | Kd (ScErg11p6 × His Y140H) [nM] | ΔAmax of type II difference spectra (ScErg11p6 × His Y140H) | MIC80 [2] [µg/mL] | MIC80 (AD3ΔScErg11p_Y140F; [8]) [µg/mL] | fold lower susceptibility (MIC80) than strain overexpressing wild type ScErg11p6 × His (AD3ΔScErg11p_Y140F) [fold] | MIC80 (AD3ΔScErg11p_Y140H) [µg/mL] | further results
CCC(C)n1ncn(-c2ccc(N3CCN(c4ccc(OCC5COC(Cn6cncn6)(c6ccc(Cl)cc6Cl)O5)cc4)CC3)cc2)c1=O (stereo not drawn) [ITC, itraconazole] | 1.6 | 280 | 123 | 0.037 | 1.83 | 330 | 130 | 0.014 | 1.48 | 250 | 130 | 0.016 | 0.105 |  |  |  | MIC80 (AD3ΔScErg11p_Y140F; 80% growth inhibition, SD medium pH 6.8, 30 °C, 48 hrs, native ERG11 deleted): 0.09 µg/mL; MIC80 (AD3ΔScErg11p_Y140F; Saccharomyces cerevisiae, 80% growth inhibition, SD medium pH 6.8, 30 °C, 48 hrs, native ERG11 deleted, read-out: MIC80): 0.09 µg/mL
C[C@@H](c1ncncc1F)[C@](O)(Cn1cncn1)c1ccc(F)cc1F [VCZ, voriconazole] | 2.7 | 400 | 82 | 0.051 | 2.60 | 270 | 30 | 0.019 | 1.23 | 290 | 220 | 0.018 | 0.25 | 0.42 | 1.7 | 0.29 | 
CC[C@@H]([C@H](C)O)n1ncn(-c2ccc(N3CCN(c4ccc(OC[C@@H]5CO[C@@](Cn6cncn6)(c6ccc(F)cc6F)C5)cc4)CC3)cc2)c1=O [PCZ, posaconazole] | 2.2 | 320 | 78 | 0.031 | 1.57 | 290 | 150 | 0.016 | 1.57 | 230 | 100 | 0.016 |  |  |  |  | 
OC(Cn1cncn1)(Cn1cncn1)c1ccc(F)cc1F [FLC, fluconazole] | 3.0 | 430 | 74 | 0.048 | 1.86 | 330 | 130 | 0.023 | 1.68 | 270 | 110 | 0.016 | 2.1 | 4 | 2 | 3.4 | IC50 (AfCYP51A [3]; membrane preparations, enzyme heterologously expressed in E. coli): 17000 nM; fold higher IC50 for AfCYP51A compared to AfCYP51B (AfCYP51A [3]; reconstituted membrane assay): 34 fold; IC50 (AfCYP51B [4]): 500 nM; Kd (AfCYP51A [5]; Ni-NTA affinity purified enzyme): 12000 nM; fold difference in Kd values AfCYP51A vs AfCYP51B (AfCYP51A [5]; Ni-NTA affinity purified enzymes): 3 fold; Kd (AfCYP51B [6]): 4000 nM; fold increase in resistance [7]: 4 fold
